Assay results from patent US12070455B2, “Thienopyrrole compounds” (Gilead Sciences, Inc., priority 2021, dated 2024).

Assays:
TLR7 = biological target: T1, TLR7 (Homo sapiens, UniProt Q9NYK1); assay: TLR7 human peripheral blood mononuclear cell (PBMC) cell-based assay; conditions: human PBMCs; 1 h with test antagonist, then TLR7 agonist GS-986 400 nM for 6 h; cytokines (IL-6 and IFNα) in supernatant; read-out: TLR-7 EC50
T1 construct: Human peripheral blood mononuclear cells (PBMCs) consist of lymphocytes, monocytes and dendritic cells that express TLR7, TLR8 and TLR9; endogenous in cells; host or cells: cryopreserved human PBMCs from healthy donors
T1 sequence (Q9NYK1 27-1049): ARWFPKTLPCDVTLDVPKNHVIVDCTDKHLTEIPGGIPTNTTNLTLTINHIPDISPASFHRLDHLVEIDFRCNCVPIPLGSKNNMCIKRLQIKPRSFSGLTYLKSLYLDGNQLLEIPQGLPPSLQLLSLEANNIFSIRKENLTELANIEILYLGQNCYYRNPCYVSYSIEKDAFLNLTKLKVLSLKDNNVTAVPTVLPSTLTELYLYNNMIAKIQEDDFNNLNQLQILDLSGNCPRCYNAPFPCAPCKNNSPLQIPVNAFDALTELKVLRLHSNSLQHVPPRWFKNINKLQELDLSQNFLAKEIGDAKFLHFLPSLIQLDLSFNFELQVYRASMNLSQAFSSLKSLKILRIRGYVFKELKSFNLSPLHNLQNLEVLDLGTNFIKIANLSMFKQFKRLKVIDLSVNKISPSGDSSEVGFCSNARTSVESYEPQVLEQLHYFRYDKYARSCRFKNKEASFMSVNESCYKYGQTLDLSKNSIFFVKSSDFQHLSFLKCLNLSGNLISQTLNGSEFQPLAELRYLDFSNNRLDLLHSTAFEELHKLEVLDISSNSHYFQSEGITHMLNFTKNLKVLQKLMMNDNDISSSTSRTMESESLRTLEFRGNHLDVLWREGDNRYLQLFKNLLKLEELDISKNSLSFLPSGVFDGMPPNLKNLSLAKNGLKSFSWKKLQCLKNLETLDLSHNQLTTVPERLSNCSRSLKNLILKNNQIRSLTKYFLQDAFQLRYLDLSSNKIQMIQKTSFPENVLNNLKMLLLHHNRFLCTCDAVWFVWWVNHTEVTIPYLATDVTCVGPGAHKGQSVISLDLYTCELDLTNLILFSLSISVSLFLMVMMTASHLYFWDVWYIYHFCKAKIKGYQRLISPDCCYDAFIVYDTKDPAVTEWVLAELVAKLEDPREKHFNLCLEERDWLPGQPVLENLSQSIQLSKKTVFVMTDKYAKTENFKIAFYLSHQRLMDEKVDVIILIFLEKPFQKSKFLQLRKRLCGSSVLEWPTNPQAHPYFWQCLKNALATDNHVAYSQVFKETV
Description: TLR7/9 Human Peripheral Blood Mononuclear Cell (PBMC) Cell-Based Assay
Human peripheral blood mononuclear cells (PBMCs) consist of lymphocytes, monocytes and dendritic cells that express TLR7, TLR8 and TLR9. These cells respond to TLR7, TLR8 and TLR9 ligand stimulation and produce cytokines and chemokines in vitro and in vivo. Human PBMCs are therefore suitable to be used in a cell-based assay to assess the in vitro potency of a TLR 7, 8, and/or 9 antagonist.
Cryopreserved human PBMCs from healthy donors were thawed and resuspended in RPMI-1640 media with L-glutamine (Corning) supplemented with 10% Fetal Bovine Serum (Hyclone) and 1× Penicillin-Streptomycin (Corning). After counting, the cell density was adjusted to 2 million cells/ml and incubated for 1 hour at 37° C., 5% CO2 for recovery. Following the recovery, the cells were plated by adding 50 μl per well (100,000 cells) to 384-well cell culture plates (Greiner) containing 250 nl of test antagonists in 100% DMSO per well, in a 10 points dose response in quadruplicates. PBMCs were incubated in the presence of test antagonists for one hour at 37° C., 5% CO2 before being stimulated with a TLR7 or TLR9 agonist. GS-986 (Gilead Sciences) was used as the TLR7 agonist at a final concentration of 400 nM. ODN-2216 (InvivoGen) was used as the TLR9 agonist at a final concentration of 3 μM. PBMCs were incubated in the presence of the test antagonist and the TLR7 (or TLR9) agonist for an additional 6 hours at 37° C., 5% CO2. At the end of the incubation, the cell culture plates were centrifuged at 500 g for 5 min, and the cell culture supernatant was collected. The level of cytokines (IL-6 and IFNα) in the supernatant was measured by electrochemiluminescence immunoassays (Mesoscale Discovery) following manufacturer's recommended protocols. The level of cytokine measured was plotted against the test antagonist concentration and fitted to a sigmoidal function to determine the EC50, which are shown below in Table 6.

TLR8 = biological target: T2, TLR8 (Homo sapiens, UniProt Q9NR97); assay: TLR8 human peripheral blood mononuclear cell (PBMC) cell-based assay; conditions: human PBMCs; 1 h with antagonist, then TLR8 agonist Compound A 800 nM for 6 h; cytokines (TNFa and IL12p40) in supernatant; read-out: TLR-8 EC50
T2 construct: Human peripheral blood mononuclear cells (PBMCs) consist of lymphocytes, monocytes and dendritic cells that express TLR7, TLR8 and TLR9; endogenous in cells; host or cells: cryopreserved human PBMCs from healthy donors
T2 sequence (Q9NR97 27-1041): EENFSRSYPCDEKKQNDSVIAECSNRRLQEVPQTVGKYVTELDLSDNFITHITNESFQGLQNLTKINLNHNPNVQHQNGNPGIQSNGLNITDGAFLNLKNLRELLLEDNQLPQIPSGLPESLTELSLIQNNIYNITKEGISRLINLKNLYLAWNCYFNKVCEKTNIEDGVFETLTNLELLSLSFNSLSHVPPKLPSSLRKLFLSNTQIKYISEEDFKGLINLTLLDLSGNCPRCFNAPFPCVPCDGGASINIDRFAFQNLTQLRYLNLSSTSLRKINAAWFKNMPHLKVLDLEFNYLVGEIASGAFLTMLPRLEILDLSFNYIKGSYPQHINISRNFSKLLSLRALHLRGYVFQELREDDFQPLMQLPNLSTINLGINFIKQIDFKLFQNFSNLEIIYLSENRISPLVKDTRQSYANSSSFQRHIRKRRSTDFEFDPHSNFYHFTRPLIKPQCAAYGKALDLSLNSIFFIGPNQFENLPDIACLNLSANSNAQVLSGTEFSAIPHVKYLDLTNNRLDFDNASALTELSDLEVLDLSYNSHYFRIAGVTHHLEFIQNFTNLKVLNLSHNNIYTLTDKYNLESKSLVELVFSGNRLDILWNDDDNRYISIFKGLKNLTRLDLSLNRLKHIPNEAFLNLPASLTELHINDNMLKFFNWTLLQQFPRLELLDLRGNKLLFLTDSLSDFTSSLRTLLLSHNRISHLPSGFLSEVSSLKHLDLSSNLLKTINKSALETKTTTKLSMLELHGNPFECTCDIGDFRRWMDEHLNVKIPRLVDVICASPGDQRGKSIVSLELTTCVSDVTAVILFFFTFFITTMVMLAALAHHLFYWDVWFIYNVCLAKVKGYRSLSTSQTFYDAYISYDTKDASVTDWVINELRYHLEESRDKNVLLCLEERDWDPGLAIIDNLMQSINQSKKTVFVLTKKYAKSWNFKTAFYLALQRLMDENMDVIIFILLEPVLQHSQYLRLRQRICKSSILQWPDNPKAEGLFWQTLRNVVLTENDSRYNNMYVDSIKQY
Experimental: TLR8 Human Peripheral Blood Mononuclear Cell (PBMC) Cell-Based Assay
Cryopreserved human PBMCs from healthy donors were thawed and resuspended in RPMI-1640 media with L-glutamine (Corning) supplemented with 10% Fetal Bovine Serum (Hyclone) and 1× Penicillin-Streptomycin (Corning). After counting, the cell density was adjusted to 2 million cells/ml and incubated for 1 hour at 37° C., 5% CO2 for recovery. Following the recovery, the cells were plated by adding 50 μl per well (100,000 cells) to 384-well cell culture plates (Greiner) containing 250 nl of test antagonists in 100% DMSO per well, in a 10 points dose response in quadruplicates. PBMCs were incubated in the presence of antagonists for one hour at 37° C., 5% CO2 before being stimulated with TLR8 agonist. Compound A (Gilead Sciences, U.S. Pat. No. 10,285,990) was used as the TLR8 agonist at a final concentration of 800 nM. PBMCs were incubated in the presence of antagonist and the TLR8 agonist for an additional 6 hours at 37° C., 5% CO2. At the end of the incubation, the cell culture plates were centrifuged at 500 g for 5 min, and the cell culture supernatant was collected. The level of cytokines (TNFa and IL12p40) in the supernatant was measured by electrochemiluminescence immunoassays (Mesoscale Discovery) following manufacturer's recommended protocols. The level of cytokine measured was plotted against the antagonist concentration and fitted to a sigmoidal function to determine the EC50, which are shown below in Table 6.

| Compound | EC50 (TLR7) [nM] | EC50 (TLR8) [nM] |
| --- | --- | --- |
| Cc1c(C2CCC(N3CC4(CCN(C)C4=O)C3)CC2)sc2[nH]c(-c3cn4ncnc4c4c3CCC4)c(C(C)C)c12 (stereo not drawn) [Example 30] | 0.86 | 1.29 |
| Cc1c(C2CCC(N3CC4(COC4)C3)CC2)sc2[nH]c(-c3cn4ncnc4c4c3CCC4)c(C(C)C)c12 (stereo not drawn) [Example 29] | 0.1 | 1 |
| Cc1nc2c3c(c(-c4[nH]c5sc(C6CCN(CC(N)=O)CC6)c(C)c5c4C(C)C)cn2n1)CCC3 [Example 50] | 0.78 | 34.6 |
| Cc1c(C2CC3CCC(C2)N3CC(N)=O)sc2[nH]c(-c3cn4ncnc4c4c3CCC4)c(C(C)C)c12 (stereo not drawn) [Example 7] | 0.78 | 3.91 |
| Cc1c(C2CCC(N3CC(C)(O)C3)CC2)sc2[nH]c(-c3cn4ncnc4c4c3CCC4)c(C(C)C)c12 (stereo not drawn) [Example 28] | 0.15 | 1.57 |
| Cc1c(C2CCN(S(=O)(=O)N3CCNCC3)CC2)sc2[nH]c(-c3cn4ncnc4c4c3CCC4)c(C(C)C)c12 [Example 11, 5-(8,9-dihydro-7H-cyclopenta[c][1,2,4]triazolo[1,5-a]pyridin-6-yl)-4-isopropyl-3-methyl-2-(1-(piperazin-1-ylsulfonyl)piperidin-4-yl)-6H-thieno[2,3-b]pyrrole] | 0.32 | 4.7 |
| Cc1c(-c2ccc(N3CCNCC3)nc2)sc2[nH]c(-c3cn4ncnc4c4c3CCC4)c(C(C)C)c12 [Example 22] | 0.23 | 0.66 |
| Cc1c(-c2cn(C3CCNCC3)nn2)sc2[nH]c(-c3cn4ncnc4c4c3CCC4)c(C(C)C)c12 [Example 24] | 0.94 | 0.21 |
| Cc1c(C2CCNCC2)sc2[nH]c(-c3cn4ncnc4c4c3CCC4)c(C(C)C)c12 [Example 1, 5-(8,9-dihydro-7H-cyclopenta[c][1,2,4]triazolo[1,5-a]pyridin-6-yl)-4-isopropyl-3-methyl-2-(piperidin-4-yl)-6H-thieno[2,3-b]pyrrole] | 0.11 | 1.89 |
| CC(C)c1c(-c2cn3ncnc3c3c2CCC3)[nH]c2sc(C(=O)N(C)C3CCNCC3)cc12 [Example 41, 5-(8,9-dihydro-7H-cyclopenta[c][1,2,4]triazolo[1,5-a]pyridin-6-yl)-4-isopropyl-N-methyl-N-(piperidin-4-yl)-6H-thieno[2,3-b]pyrrole-2-carboxamide] | 0.49 | 2.56 |
| Cc1c(C23CCNCC2C3)sc2[nH]c(-c3cn4ncnc4c4c3CCC4)c(C(C)C)c12 (stereo not drawn) [Example 5, 2-(3-azabicyclo[4.1.0]heptan-6-yl)-5-(8,9-dihydro-7H-cyclopenta[c][1,2,4]triazolo[1,5-a]pyridin-6-yl)-4-isopropyl-3-methyl-6H-thieno[2,3-b]pyrrole] | 0.23 | 1.76 |

Other lines, results leading:

| EC50 (TLR7) [nM] | EC50 (TLR8) [nM] | Compound |
| --- | --- | --- |
| 0.58 | 4.87 | Cc1c(C2CCN(C(=O)[C@H]3COCCN3)CC2)sc2[nH]c(-c3cn4ncnc4c4c3CCC4)c(C(C)C)c12 [Example 14, (R)-(4-(5-(8,9-dihydro-7H-cyclopenta[c][1,2,4]triazolo[1,5-a]pyridin-6-yl)-4-isopropyl-3-methyl-6H-thieno[2,3-b]pyrrol-2-yl)piperidin-1-yl)(morpholin-3-yl)methanone] |
| 0.05 | 1.38 | Cc1c(C2CCN(C(=O)[C@H]3C[C@@]4(CNCCO4)C3)CC2)sc2[nH]c(-c3cn4ncnc4c4c3CCC4)c(C(C)C)c12 [Example 25] |
| 0.44 | 4.42 | CO[C@H]1CN[C@@H](C(=O)N2CCC(c3sc4[nH]c(-c5cn6ncnc6c6c5CCC6)c(C(C)C)c4c3C)CC2)C1 [Example 18] |
| 3.4 | 5.01 | Cc1c(C2CCN(C(=O)[C@@H]3C[C@H](C(F)(F)F)CN3)CC2)sc2[nH]c(-c3cn4ncnc4c4c3CCC4)c(C(C)C)c12 [Example 39] |
| 0.62 | 16.2 | Cc1nc2c3c(c(-c4[nH]c5sc(C6CCN(C(=O)[C@H]7COCCN7)CC6)c(C)c5c4C(C)C)cn2n1)CCC3 [Example 53] |
| 0.68 | 15.2 | Cc1c(C2CCN(C(=O)[C@H]3C[C@H](F)CN3)CC2)sc2[nH]c(-c3cn4ncnc4c4c3CCC4)c(C(C)C)c12 [Example 17] |
| 0.14 | 5.42 | CO[C@@H]1CN[C@@H](C(=O)N2CCC(c3sc4[nH]c(-c5cn6ncnc6c6c5CCC6)c(C(C)C)c4c3C)CC2)C1 [Example 19] |
